Results: PubChem BioAssay AID256 (DTP/NCI, 2004)
Toxic doses and inconclusive results are not listed. Rule for the calls: active = survival T/C of 150% or more; inactive = T/C below 125% in these data.

Tested on: CD2F1 mice, L1210 leukemia ip, survival T/C
Assay: NCI In Vivo Anticancer Drug Screen. Data for tumor model L1210 Leukemia (intraperitoneal) in CD2F1 (CDF1) mice
Settings: higher = longer survival
Outline: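 Tumor-bearing mice (transplanted tumor) were split into treated and vehicle control groups, and the measured endpoint of each treated group was divided by that of its vehicle controls.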

[1] = endpoint: mean survival time, dose: 100.0 mg/kg/injection, schedule: Q04DX003 (ip), vehicle: saline with Tween-80
[2] = endpoint: mean survival time, dose: 200.0 mg/kg/injection, schedule: Q04DX003 (ip), vehicle: saline with Tween-80
[3] = endpoint: mean survival time, dose: 400.0 mg/kg/injection, schedule: Q04DX003 (ip), vehicle: saline with Tween-80
[4] = endpoint: mean survival time, dose: 100.0 mg/kg/injection, schedule: Q01DX009 (ip), vehicle: saline with Tween-80
[5] = endpoint: mean survival time, dose: 200.0 mg/kg/injection, schedule: Q01DX009 (ip), vehicle: saline with Tween-80
[6] = endpoint: mean survival time, dose: 400.0 mg/kg/injection, schedule: Q01DX009 (ip), vehicle: saline with Tween-80
[7] = endpoint: mean survival time, dose: 50.0 mg/kg/injection, schedule: Q01DX009 (ip), vehicle: saline with Tween-80
[8] = endpoint: mean survival time, dose: 100.0 mg/kg/injection, schedule: Q01DX001 (ip), vehicle: saline with Tween-80
[9] = endpoint: mean survival time, dose: 200.0 mg/kg/injection, schedule: Q01DX001 (ip), vehicle: saline with Tween-80
[10] = endpoint: mean survival time, dose: 100.0 mg/kg/injection, schedule: Q04DX003 (ip), vehicle: Klucel (hydroxypropylcellulose) (HPC)
[11] = endpoint: mean survival time, dose: 400.0 mg/kg/injection, schedule: Q01DX001 (ip), vehicle: saline with Tween-80

Measured: T/C

COc1cc(/C=C/C(=O)O)ccc1OC(C)=O
inactive: endpoint: mean survival time, dose: 100.0 mg/kg/injection, schedule: Q01DX009 (ip), vehicle: saline 98 % of control | endpoint: mean survival time, dose: 200.0 mg/kg/injection, schedule: Q01DX009 (ip), vehicle: saline 100 % of control | endpoint: mean survival time, dose: 400.0 mg/kg/injection, schedule: Q01DX009 (ip), vehicle: saline 93 % of control

[Cl][Mn][Cl]
inactive: endpoint: median survival time, dose: 8.0 mg/kg/injection, schedule: Q01DX009 (ip), vehicle: saline 92 % of control | endpoint: median survival time, dose: 16.0 mg/kg/injection, schedule: Q01DX009 (ip), vehicle: saline 97 % of control | endpoint: median survival time, dose: 32.0 mg/kg/injection, schedule: Q01DX009 (ip), vehicle: saline 103 % of control | endpoint: median survival time, dose: 64.0 mg/kg/injection, schedule: Q01DX009 (ip), vehicle: saline 110 % of control

O=[N+]([O-])c1ccc(N2N=NC3C4CCC(C4)C32)cc1 (configuration not stated)
inactive: [1] 93 % of control | [2] 91 % of control | [3] 96 % of control

O=C(NCCCCC(Cl)C(=O)O)c1ccccc1 (configuration not stated)
inactive: [4] 98 % of control | [5] 100 % of control | [6] 100 % of control

CC(=O)Oc1ccc2ncccc2c1Cc1c(OC(C)=O)ccc2ncccc12
inactive: endpoint: mean survival time, dose: 75.0 mg/kg/injection, schedule: Q01DX001 (ip), vehicle: saline 90 % of control | endpoint: mean survival time, dose: 300.0 mg/kg/injection, schedule: Q01DX001 (ip), vehicle: saline 91 % of control

CC(C)(CBr)COC(=O)Nc1cccc2ccccc12
inactive: endpoint: mean survival time, dose: 12.5 mg/kg/injection, schedule: Q01DX009 (ip), vehicle: saline with Tween-80 91 % of control | endpoint: mean survival time, dose: 25.0 mg/kg/injection, schedule: Q01DX009 (ip), vehicle: saline with Tween-80 91 % of control | [7] 95 % of control

CC(=O)OCC1OC2OC(C)(C)OC2C2OC(C)(C)OC12 (configuration not stated)
inactive: [1] 104 % of control | [2] 101 % of control | [3] 106 % of control

c1c(NC2=NCCO2)cc2c3c1CCCN3CCC2
inactive: [1] 92 % of control | [2] 97 % of control

CSC/C(=N\Nc1ccc([N+](=O)[O-])cc1[N+](=O)[O-])c1ccccc1
inactive: endpoint: mean survival time, dose: 50.0 mg/kg/injection, schedule: Q01DX001 (ip), vehicle: saline with Tween-80 98 % of control | [8] 93 % of control | [9] 90 % of control

CCN(CC)CCNc1cc(OC)cc2cccnc12
inactive: endpoint: mean survival time, dose: 6.25 mg/kg/injection, schedule: Q04DX002 (ip), vehicle: saline 98 % of control | endpoint: mean survival time, dose: 12.5 mg/kg/injection, schedule: Q04DX002 (ip), vehicle: saline 98 % of control | endpoint: mean survival time, dose: 25.0 mg/kg/injection, schedule: Q04DX002 (ip), vehicle: saline 95 % of control

Cc1ccc(S(=O)(=O)NS(=O)(=O)c2ccc(C)cc2)cc1
inactive: endpoint: mean survival time, dose: 25.0 mg/kg/injection, schedule: Q04DX003 (ip), vehicle: Klucel (hydroxypropylcellulose) (HPC) 106 % of control | endpoint: mean survival time, dose: 50.0 mg/kg/injection, schedule: Q04DX003 (ip), vehicle: Klucel (hydroxypropylcellulose) (HPC) 100 % of control | endpoint: mean survival time, dose: 75.0 mg/kg/injection, schedule: Q04DX003 (ip), vehicle: saline sonified 97 % of control | [10] 88 % of control | endpoint: mean survival time, dose: 150.0 mg/kg/injection, schedule: Q04DX003 (ip), vehicle: saline sonified 95 % of control | endpoint: mean survival time, dose: 300.0 mg/kg/injection, schedule: Q04DX003 (ip), vehicle: saline sonified 101 % of control

CSCCC(NC(=O)c1ccccc1)C(=O)O (configuration not stated)
inactive: [4] 91 % of control | [5] 87 % of control | [6] 90 % of control

c1ccc2c(c1)CN(C1CCCCC1)CO2
inactive: [7] 98 % of control | [4] 97 % of control | [5] 97 % of control

COC(=O)CCC#N
inactive: endpoint: mean survival time, dose: 100.0 mg/kg/injection, schedule: Q04DX003 (ip), vehicle: saline 96 % of control | endpoint: mean survival time, dose: 200.0 mg/kg/injection, schedule: Q04DX003 (ip), vehicle: saline 91 % of control | endpoint: mean survival time, dose: 400.0 mg/kg/injection, schedule: Q04DX003 (ip), vehicle: saline 97 % of control

Nc1nc(N)c(-c2cccc(Cl)c2)c(COc2ccc(NC(=O)Nc3cccc(S(=O)(=O)F)c3)cc2)n1
inactive: endpoint: mean survival time, dose: 37.5 mg/kg/injection, schedule: Q01DX001 (ip), vehicle: saline with Tween-80 100 % of control | endpoint: mean survival time, dose: 75.0 mg/kg/injection, schedule: Q01DX001 (ip), vehicle: saline with Tween-80 91 % of control | endpoint: mean survival time, dose: 150.0 mg/kg/injection, schedule: Q01DX001 (ip), vehicle: saline with Tween-80 92 % of control

O=[N+]([O-])c1ccc(C(Cl)S(=O)(=O)c2ccccc2)cc1 (configuration not stated)
inactive: endpoint: mean survival time, dose: 100.0 mg/kg/injection, schedule: Q01DX009 (ip), vehicle: Klucel (hydroxypropylcellulose) (HPC) 98 % of control | endpoint: mean survival time, dose: 200.0 mg/kg/injection, schedule: Q01DX009 (ip), vehicle: Klucel (hydroxypropylcellulose) (HPC) 92 % of control | endpoint: mean survival time, dose: 400.0 mg/kg/injection, schedule: Q01DX009 (ip), vehicle: Klucel (hydroxypropylcellulose) (HPC) 110 % of control

C[n+]1ccn(Cc2ccc([N+](=O)[O-])cc2)c1
inactive: endpoint: mean survival time, dose: 100.0 mg/kg/injection, schedule: Q01DX001 (ip), vehicle: saline 100 % of control | endpoint: mean survival time, dose: 200.0 mg/kg/injection, schedule: Q01DX001 (ip), vehicle: saline 101 % of control

CN(C)P1(=S)NCC(C(C)(C)C)CO1 (configuration not stated)
inactive: endpoint: mean survival time, dose: 15.63 mg/kg/injection, schedule: Q01DX001 (ip), vehicle: distilled water + Tween-80 103 % of control | endpoint: mean survival time, dose: 31.25 mg/kg/injection, schedule: Q01DX001 (ip), vehicle: distilled water + Tween-80 103 % of control | endpoint: mean survival time, dose: 62.5 mg/kg/injection, schedule: Q01DX001 (ip), vehicle: distilled water + Tween-80 103 % of control | endpoint: mean survival time, dose: 125.0 mg/kg/injection, schedule: Q01DX001 (ip), vehicle: distilled water + Tween-80 97 % of control | endpoint: mean survival time, dose: 250.0 mg/kg/injection, schedule: Q01DX001 (ip), vehicle: distilled water + Tween-80 92 % of control

O=C(CNC(=O)NCc1ccco1)N/N=C/c1cccc([N+](=O)[O-])c1
inactive: [7] 92 % of control | [4] 88 % of control | [5] 103 % of control

O/N=C1/CCCC/C1=C/c1ccc(Cl)cc1
inactive: [10] 98 % of control | endpoint: mean survival time, dose: 200.0 mg/kg/injection, schedule: Q04DX003 (ip), vehicle: Klucel (hydroxypropylcellulose) (HPC) 100 % of control | endpoint: mean survival time, dose: 400.0 mg/kg/injection, schedule: Q04DX003 (ip), vehicle: Klucel (hydroxypropylcellulose) (HPC) 100 % of control

CC1(O)CSC(C)(O)CS1 (configuration not stated)
inactive: endpoint: mean survival time, dose: 6.25 mg/kg/injection, schedule: Q04DX002 (ip), vehicle: saline with Tween-80 104 % of control | endpoint: mean survival time, dose: 12.5 mg/kg/injection, schedule: Q04DX002 (ip), vehicle: saline with Tween-80 100 % of control | endpoint: mean survival time, dose: 25.0 mg/kg/injection, schedule: Q04DX002 (ip), vehicle: saline with Tween-80 104 % of control

CC[C@H]1CN2CCc3cc(OC)c(OC)cc3[C@@H]2C[C@@H]1C[C@@H]1c2cc(OC)c(OC)cc2CCN1N=O
inactive: endpoint: mean survival time, dose: 12.5 mg/kg/injection, schedule: Q01DX009 (ip), vehicle: saline 104 % of control | endpoint: mean survival time, dose: 25.0 mg/kg/injection, schedule: Q01DX009 (ip), vehicle: saline 104 % of control | endpoint: mean survival time, dose: 25.0 mg/kg/injection, schedule: Q04DX003 (ip), vehicle: saline 100 % of control | endpoint: mean survival time, dose: 50.0 mg/kg/injection, schedule: Q01DX009 (ip), vehicle: saline 107 % of control | endpoint: mean survival time, dose: 50.0 mg/kg/injection, schedule: Q04DX003 (ip), vehicle: saline 95 % of control

CCC1(C)CCC2=C(CCC3C(C)(C(=O)O)CCCC23C)C1 (configuration not stated)
inactive: [8] 96 % of control | [4] 93 % of control | [9] 91 % of control | [5] 91 % of control | [11] 96 % of control

N#CCCN(CC(O)c1cc2ccccc2c2ccccc12)C1CCCCC1 (configuration not stated)
inactive: [8] 91 % of control | [4] 106 % of control | [9] 90 % of control | [5] 97 % of control | [11] 92 % of control | [6] 97 % of control
